Assay results as given in publication PMC4418468 (BioTechniques, 2009).

Biological target: CXCR7 (Homo sapiens, UniProt P25106)
Assay: competition of CXCL12-Gaussia luciferase binding to intact cells at […] °C
Type: cell-based

CXCR7, sequence (P25106 whole entry): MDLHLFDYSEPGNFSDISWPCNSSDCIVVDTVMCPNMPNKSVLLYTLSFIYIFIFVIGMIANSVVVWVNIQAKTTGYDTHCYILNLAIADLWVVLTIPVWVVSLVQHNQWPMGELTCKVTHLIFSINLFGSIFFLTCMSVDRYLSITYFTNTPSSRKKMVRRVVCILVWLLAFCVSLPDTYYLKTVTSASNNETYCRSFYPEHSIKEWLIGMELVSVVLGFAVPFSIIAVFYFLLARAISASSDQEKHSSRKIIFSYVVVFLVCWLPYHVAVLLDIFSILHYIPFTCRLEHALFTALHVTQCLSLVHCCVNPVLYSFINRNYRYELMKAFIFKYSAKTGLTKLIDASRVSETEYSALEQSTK

EC50 [µM]	Substance
~0.018	CCX733
~0.25	CCX754
